Laboratory results: the kinase profiling compilation of Christmann-Franck et al. (2016)

What was measured:
Experiment in all cases: KINOMEscan competition binding
Settings in all cases: compound 10.0 µM
[1] = test system: ABL1 (human), P00519 [E255K]
[2] = test system: ABL1 (human), P00519 [Y253F]
[3] = molecular target: ADCK3 (human) (UniProt Q8NI60)
[4] = molecular target: AKT1 (human) (UniProt P31749)
[5] = molecular target: BMP2K (human) (UniProt Q9NSY1)
[6] = molecular target: BMPR1A (human) (UniProt P36894)
[7] = molecular target: CDK7 (human) (UniProt P50613)
[8] = molecular target: CDK8 (human) (UniProt P49336)
[9] = molecular target: CSNK1D (human) (UniProt P48730)
[10] = molecular target: DDR2 (human) (UniProt Q16832)
[11] = test system: EGFR (human), P00533 [746-750 del]
[12] = test system: EGFR (human), P00533 [747-751 del / S ins]
[13] = test system: EGFR (human), P00533 [L861Q]
[14] = test system: EIF2AK4 KD2 (human), Q9P2K8 [S808G]
[15] = molecular target: EPHA1 (human) (UniProt P21709)
[16] = molecular target: EPHB3 (human) (UniProt P54753)
[17] = molecular target: FGR (human) (UniProt P09769)
[18] = molecular target: FLT4 (human) (UniProt P35916)
[19] = molecular target: GSK3A (human) (UniProt P49840)
[20] = molecular target: JAK2 JH1 catalytic (human) (UniProt O60674)
[21] = molecular target: LATS1 (human) (UniProt O95835)
[22] = molecular target: MAP4K4 (human) (UniProt O95819)
[23] = molecular target: MAPK10 (human) (UniProt P53779)
[24] = molecular target: MAPK9 (human) (UniProt P45984)
[25] = molecular target: MAPKAPK2 (human) (UniProt P49137)
[26] = molecular target: MERTK (human) (UniProt Q12866)
[27] = molecular target: MYLK3 (human) (UniProt Q32MK0)
[28] = molecular target: NEK5 (human) (UniProt Q6P3R8)
[29] = molecular target: NEK6 (human) (UniProt Q9HC98)
[30] = molecular target: PHKG2 (human) (UniProt P15735)
[31] = test system: PIK3CA (human), P42336 [E545K]
[32] = molecular target: PLK4 (human) (UniProt O00444)
[33] = molecular target: RIPK1 (human) (UniProt Q13546)
[34] = molecular target: RPS6KA2 KD1 (human) (UniProt Q15349)
[35] = molecular target: RPS6KA2 KD2 (human) (UniProt Q15349)
[36] = molecular target: RPS6KA4 KD2 (human) (UniProt O75676)
[37] = molecular target: STK35 (human) (UniProt Q8TDR2)
[38] = molecular target: STK36 (human) (UniProt Q9NRP7)
[39] = molecular target: SYK (human) (UniProt P43405)
[40] = molecular target: TLK2 (human) (UniProt Q86UE8)
[41] = molecular target: TNK1 (human) (UniProt Q13470)
[42] = molecular target: ULK1 (human) (UniProt O75385)
ULK1 (human), sequence (O75385 whole entry, looked up): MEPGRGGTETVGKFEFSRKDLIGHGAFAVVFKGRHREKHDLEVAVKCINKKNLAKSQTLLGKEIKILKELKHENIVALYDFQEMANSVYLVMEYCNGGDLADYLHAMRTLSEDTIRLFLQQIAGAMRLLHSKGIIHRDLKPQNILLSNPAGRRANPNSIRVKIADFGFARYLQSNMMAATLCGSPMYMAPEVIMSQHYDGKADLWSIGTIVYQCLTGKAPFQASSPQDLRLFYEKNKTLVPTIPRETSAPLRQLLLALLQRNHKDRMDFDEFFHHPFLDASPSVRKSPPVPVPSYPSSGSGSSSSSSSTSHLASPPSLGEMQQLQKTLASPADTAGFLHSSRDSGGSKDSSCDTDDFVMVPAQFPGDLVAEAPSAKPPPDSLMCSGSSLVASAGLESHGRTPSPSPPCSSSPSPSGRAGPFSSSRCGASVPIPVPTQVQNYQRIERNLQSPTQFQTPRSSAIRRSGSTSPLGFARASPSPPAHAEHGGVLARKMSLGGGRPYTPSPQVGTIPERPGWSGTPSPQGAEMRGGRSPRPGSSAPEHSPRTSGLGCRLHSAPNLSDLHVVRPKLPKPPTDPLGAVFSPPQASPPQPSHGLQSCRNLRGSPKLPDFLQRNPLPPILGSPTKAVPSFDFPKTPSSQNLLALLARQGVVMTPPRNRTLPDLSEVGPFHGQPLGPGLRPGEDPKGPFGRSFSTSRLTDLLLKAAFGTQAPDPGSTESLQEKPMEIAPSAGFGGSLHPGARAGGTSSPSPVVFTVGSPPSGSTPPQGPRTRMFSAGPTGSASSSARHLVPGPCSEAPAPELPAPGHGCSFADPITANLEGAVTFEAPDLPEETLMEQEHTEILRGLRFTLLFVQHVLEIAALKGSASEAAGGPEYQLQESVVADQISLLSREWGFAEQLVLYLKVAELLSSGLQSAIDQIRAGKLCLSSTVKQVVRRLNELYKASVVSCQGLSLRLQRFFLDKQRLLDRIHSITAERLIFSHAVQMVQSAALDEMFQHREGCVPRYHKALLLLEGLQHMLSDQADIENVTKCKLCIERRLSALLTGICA

GSK3A (human), sequence (P49840 whole entry, looked up): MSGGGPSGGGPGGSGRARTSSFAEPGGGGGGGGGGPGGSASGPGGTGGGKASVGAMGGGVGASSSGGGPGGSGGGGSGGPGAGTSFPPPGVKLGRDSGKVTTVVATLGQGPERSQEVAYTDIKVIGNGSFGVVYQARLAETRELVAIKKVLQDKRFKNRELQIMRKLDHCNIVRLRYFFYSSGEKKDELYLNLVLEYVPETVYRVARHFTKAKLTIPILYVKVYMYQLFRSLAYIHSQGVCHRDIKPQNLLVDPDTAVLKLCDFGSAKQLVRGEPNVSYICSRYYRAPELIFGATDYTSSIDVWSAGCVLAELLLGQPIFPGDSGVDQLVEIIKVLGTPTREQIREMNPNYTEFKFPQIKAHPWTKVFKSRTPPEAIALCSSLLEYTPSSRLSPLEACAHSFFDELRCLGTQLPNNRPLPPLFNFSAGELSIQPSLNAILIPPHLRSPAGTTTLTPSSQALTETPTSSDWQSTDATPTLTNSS
BMP2K (human), sequence (Q9NSY1 whole entry, looked up): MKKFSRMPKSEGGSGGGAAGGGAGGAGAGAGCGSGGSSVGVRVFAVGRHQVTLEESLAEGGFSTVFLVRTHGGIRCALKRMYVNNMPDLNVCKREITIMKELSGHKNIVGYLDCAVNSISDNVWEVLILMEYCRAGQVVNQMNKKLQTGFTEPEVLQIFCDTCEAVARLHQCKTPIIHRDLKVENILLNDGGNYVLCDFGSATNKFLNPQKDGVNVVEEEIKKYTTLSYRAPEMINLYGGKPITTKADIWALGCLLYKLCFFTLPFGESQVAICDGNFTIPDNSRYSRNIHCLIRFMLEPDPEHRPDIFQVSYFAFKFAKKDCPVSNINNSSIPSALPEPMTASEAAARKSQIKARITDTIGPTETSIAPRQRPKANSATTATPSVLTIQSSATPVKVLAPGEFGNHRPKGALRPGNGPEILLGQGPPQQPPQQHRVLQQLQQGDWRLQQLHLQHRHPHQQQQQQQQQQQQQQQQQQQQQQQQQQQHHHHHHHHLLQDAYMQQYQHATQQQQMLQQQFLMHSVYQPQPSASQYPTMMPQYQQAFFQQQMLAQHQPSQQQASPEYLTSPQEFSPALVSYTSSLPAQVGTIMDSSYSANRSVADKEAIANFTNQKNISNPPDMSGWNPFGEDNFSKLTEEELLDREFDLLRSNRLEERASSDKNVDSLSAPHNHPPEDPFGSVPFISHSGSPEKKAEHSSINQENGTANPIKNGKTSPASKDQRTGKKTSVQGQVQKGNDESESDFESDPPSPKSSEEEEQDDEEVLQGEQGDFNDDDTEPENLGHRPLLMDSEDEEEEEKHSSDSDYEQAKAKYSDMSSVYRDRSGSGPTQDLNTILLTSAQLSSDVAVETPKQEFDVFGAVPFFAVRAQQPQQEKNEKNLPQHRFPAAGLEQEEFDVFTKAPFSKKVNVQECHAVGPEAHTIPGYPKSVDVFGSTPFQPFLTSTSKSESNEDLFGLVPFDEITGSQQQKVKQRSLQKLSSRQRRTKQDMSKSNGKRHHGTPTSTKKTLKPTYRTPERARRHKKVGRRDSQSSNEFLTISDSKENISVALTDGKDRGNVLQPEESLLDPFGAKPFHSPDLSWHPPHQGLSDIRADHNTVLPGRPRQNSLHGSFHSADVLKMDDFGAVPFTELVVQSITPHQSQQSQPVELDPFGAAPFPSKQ
RPS6KA4 KD2 (human), sequence (O75676 whole entry, looked up): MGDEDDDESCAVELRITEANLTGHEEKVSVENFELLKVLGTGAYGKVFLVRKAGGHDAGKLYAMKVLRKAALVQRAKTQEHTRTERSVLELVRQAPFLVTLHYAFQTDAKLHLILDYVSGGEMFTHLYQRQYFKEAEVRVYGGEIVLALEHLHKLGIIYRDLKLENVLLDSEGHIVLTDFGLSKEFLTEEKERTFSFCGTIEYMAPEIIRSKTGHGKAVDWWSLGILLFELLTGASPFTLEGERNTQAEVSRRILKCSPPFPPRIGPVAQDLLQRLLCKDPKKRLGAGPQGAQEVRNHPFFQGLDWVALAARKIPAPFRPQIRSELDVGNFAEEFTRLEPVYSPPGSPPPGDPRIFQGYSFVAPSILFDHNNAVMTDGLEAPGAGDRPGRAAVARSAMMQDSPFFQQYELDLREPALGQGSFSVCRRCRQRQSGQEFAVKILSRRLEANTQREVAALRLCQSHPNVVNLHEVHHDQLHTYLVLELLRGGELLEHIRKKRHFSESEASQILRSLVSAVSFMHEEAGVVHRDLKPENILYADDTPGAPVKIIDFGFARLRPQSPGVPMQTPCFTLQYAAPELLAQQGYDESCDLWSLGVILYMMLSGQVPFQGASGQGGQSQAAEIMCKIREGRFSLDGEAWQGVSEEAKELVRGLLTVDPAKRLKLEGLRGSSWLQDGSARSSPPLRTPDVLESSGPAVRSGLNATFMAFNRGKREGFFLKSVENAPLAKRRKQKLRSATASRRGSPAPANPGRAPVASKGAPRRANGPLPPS
MAPKAPK2 (human), sequence (P49137 whole entry, looked up): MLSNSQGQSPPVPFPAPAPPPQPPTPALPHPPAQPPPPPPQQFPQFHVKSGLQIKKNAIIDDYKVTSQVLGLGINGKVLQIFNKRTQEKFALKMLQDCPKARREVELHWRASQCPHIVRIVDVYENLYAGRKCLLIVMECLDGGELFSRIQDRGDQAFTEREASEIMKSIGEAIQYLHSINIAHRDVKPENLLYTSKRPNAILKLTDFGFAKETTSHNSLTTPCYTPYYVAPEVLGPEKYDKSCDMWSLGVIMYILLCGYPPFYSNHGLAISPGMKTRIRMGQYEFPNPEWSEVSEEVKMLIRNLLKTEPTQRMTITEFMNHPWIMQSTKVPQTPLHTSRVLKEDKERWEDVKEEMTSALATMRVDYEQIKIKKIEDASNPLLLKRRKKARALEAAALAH
FGR (human), sequence (P09769 whole entry, looked up): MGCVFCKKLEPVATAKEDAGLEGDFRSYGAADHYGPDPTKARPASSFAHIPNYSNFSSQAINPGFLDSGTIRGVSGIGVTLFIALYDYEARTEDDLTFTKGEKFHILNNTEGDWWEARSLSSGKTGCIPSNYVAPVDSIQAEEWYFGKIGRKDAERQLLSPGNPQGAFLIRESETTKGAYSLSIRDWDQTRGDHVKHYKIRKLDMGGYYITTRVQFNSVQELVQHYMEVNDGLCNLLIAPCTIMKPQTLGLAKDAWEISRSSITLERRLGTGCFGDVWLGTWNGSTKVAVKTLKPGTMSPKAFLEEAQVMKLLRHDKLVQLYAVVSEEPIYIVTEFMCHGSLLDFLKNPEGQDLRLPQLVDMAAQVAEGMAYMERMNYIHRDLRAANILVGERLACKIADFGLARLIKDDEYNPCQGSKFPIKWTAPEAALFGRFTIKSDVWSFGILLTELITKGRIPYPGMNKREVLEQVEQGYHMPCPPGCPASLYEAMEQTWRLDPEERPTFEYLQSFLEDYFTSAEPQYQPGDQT
CDK7 (human), sequence (P50613 whole entry, looked up): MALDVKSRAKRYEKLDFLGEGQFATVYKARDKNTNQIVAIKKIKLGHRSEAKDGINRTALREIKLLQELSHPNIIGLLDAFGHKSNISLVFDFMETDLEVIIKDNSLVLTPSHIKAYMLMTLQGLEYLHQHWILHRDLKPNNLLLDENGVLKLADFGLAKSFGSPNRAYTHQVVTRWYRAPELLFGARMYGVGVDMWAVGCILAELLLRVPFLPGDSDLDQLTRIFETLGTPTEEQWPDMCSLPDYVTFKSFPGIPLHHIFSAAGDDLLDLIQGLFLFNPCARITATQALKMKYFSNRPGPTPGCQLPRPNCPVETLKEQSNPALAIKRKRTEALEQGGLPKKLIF

Q: With `CCN1CCN(Cc2ccc(NC(=O)c3ccc(C)c(/C=C/c4cnc(Nc5cc(N6CCNCC6)nc(C)n5)cn4)c3)cc2C(F)(F)F)CC1` as the compound, how does the kinase still bound, per cent of control [1] read?
A: 0.3%

Q: What about the kinase still bound, per cent of control [2] of the same compound?
A: 0.1%

Q: And the kinase still bound, per cent of control [3]?
A: 100%

Q: What about the kinase still bound, per cent of control [4] of the same compound?
A: 100%

Q: And the kinase still bound, per cent of control [5]?
A: 100%

Q: What about the kinase still bound, per cent of control [6] of the same compound?
A: 100%

Q: And the kinase still bound, per cent of control [7]?
A: 3%

Q: And the kinase still bound, per cent of control [8]?
A: 3.6%

Q: And the kinase still bound, per cent of control [9]?
A: 95%

Q: What about the kinase still bound, per cent of control [10] of the same compound?
A: 0%

Q: And the kinase still bound, per cent of control [11]?
A: 17%

Q: And the kinase still bound, per cent of control [12]?
A: 4.6%

Q: What about the kinase still bound, per cent of control [13] of the same compound?
A: 0.85%

Q: And the kinase still bound, per cent of control [14]?
A: 0.8%

Q: What about the kinase still bound, per cent of control [15] of the same compound?
A: 10%

Q: And the kinase still bound, per cent of control [16]?
A: 100%

Q: What about the kinase still bound, per cent of control [17] of the same compound?
A: 4.5%

Q: And the kinase still bound, per cent of control [18]?
A: 26%

Q: What about the kinase still bound, per cent of control [19] of the same compound?
A: 81%

Q: And the kinase still bound, per cent of control [20]?
A: 29%

Q: And the kinase still bound, per cent of control [21]?
A: 55%

Q: What about the kinase still bound, per cent of control [22] of the same compound?
A: 0.1%

Q: And the kinase still bound, per cent of control [23]?
A: 54%

Q: What about the kinase still bound, per cent of control [24] of the same compound?
A: 0.7%

Q: And the kinase still bound, per cent of control [25]?
A: 100%

Q: And the kinase still bound, per cent of control [26]?
A: 31%

Q: What about the kinase still bound, per cent of control [27] of the same compound?
A: 59%

Q: What about the kinase still bound, per cent of control [28] of the same compound?
A: 49%

Q: What about the kinase still bound, per cent of control [29] of the same compound?
A: 100%

Q: What about the kinase still bound, per cent of control [30] of the same compound?
A: 100%

Q: And the kinase still bound, per cent of control [31]?
A: 100%

Q: And the kinase still bound, per cent of control [32]?
A: 92%

Q: And the kinase still bound, per cent of control [33]?
A: 2.7%

Q: And the kinase still bound, per cent of control [34]?
A: 69%

Q: What about the kinase still bound, per cent of control [35] of the same compound?
A: 43%

Q: And the kinase still bound, per cent of control [36]?
A: 43%

Q: And the kinase still bound, per cent of control [37]?
A: 57%

Q: What about the kinase still bound, per cent of control [38] of the same compound?
A: 0.1%

Q: What about the kinase still bound, per cent of control [39] of the same compound?
A: 15%

Q: And the kinase still bound, per cent of control [40]?
A: 100%

Q: What about the kinase still bound, per cent of control [41] of the same compound?
A: 13%

Q: And the kinase still bound, per cent of control [42]?
A: 83%
